Assay type in all cases: cell-based, mouse
One experiment has as its system PKCζkd cells. The experiment is described as follows: PKCζkd cells cultured on collagen IV without LIF. From the text:
ES Cell Differentiation on Collagen-IV and With Retinoic Acid. To differentiate ES cells in monolayer culture on collagen IV, around 3×10^4 cells per well were transferred to collagen IV-coated 6-well plates (BD Biosciences, Franklin Lakes, N.J.) cultured for 5 days in ES differentiation medium containing DMEM (Invitrogen), 15% FBS (selected for endothelial differentiation, Stem Cell Technologies, Vancouver, BC), sodium pyruvate and L-glutamine with or without LIF and Gö6983, and were recovered by cell dissociation buffer (BD Biosciences, Franklin Lakes, N.J.). For culturing multiple passages with Gö6983 on collagen-IV, the recovered cells were again plated at a density of ˜3×10^4 cells per well and cultured again for 5 days. […] For RA-induced differentiation on monolayer culture, ES cells were treated with all-trans-retinoic acid (Sigma, St. Louis, Mo.) in ethanol at a concentration of 1 μM with or without LIF and Gö6983 for 6 days followed by study of expression of pluripotency markers (by immunofluorescence or western blot or RT-PCR analysis).
RNA Interference and Rescue of PKCζ Expression in RKCζkd Cells. Lentiviral vectors containing short hairpin RNAs (shRNAs) targeting mouse PKCζ mRNA were cloned in pLKO1 (Open Biosystems, Huntsville, Ala.). Lentiviral supernatants were produced in HEK-293T cells according to known methods (Dutta, et al. (2008) supra). […]

For the next experiment, the system named is Stat3−/− ES cells. Kind of experiment: Stat3−/− ES cells in serum-free N2B27 medium. The method, then:
Stat3^−/− ES Cells. Passage 12 Stat3^−/− ES cells were maintained on N2B27 medium with 1 μM PD0325901 and 3 μM CHIR99021 and passaged every 3-4 days. For studies involving Gö6983, around 1-2×10^4 cells were plated on 6-well plates having N2B27 medium with or without 5 μM Gö6983 and analyzed for the expression of pluripotency markers.

The test system of the next experiment is NF-κB target genes. The experiment is described as follows: RT-PCR analysis of NF-κB target gene expression. The protocol: Quantitative RT-PCR Analysis. RNA was extracted from different cell samples with TRIZOL reagent (Invitrogen). cDNA was prepared by annealing RNA (1 μg) with 250 ng of a 5:1 mixture of random and oligo(dT) primers heated at 68° C. for 10 minutes. This was followed by incubation with Moloney murine leukemia virus reverse transcriptase (50 units) (Invitrogen, Carlsbad, Calif.) combined with 10 mM DTT, RNasin (PROMEGA, Madison, Wis.), and 0.5 mM dNTPs at 42° C. for 1 hour. Reactions were diluted to a final volume of 100 μl and heat inactivated at 97° C. for 5 minutes. Twenty μl PCR reactions contained 2 μl cDNA, 10 μl SYBR Green Master Mix (Applied Biosystems, Foster City, Calif.) and corresponding primer sets. Relative expression levels were determined from a standard curve of serial dilutions of proliferating ES cell cDNA samples and were normalized to the expression of glyceraldehyde-3-phosphate dehydrogenase (GAPDH). At least three independent experiments were done for each set of data.

The test system of experiment [1] is Oct4 and Nanog promoter regions. The experiment is described as follows: DNA methylation analysis (bisulfite sequencing, MSP). As to conditions: E14 cells, 5 days on collagen-IV. From the text: DNA Methylation Analysis. One μg of genomic DNA was subjected to bisulfite treatment using CPGENOME Fast DNA Modification Kit (Chemicon Int.). For bisulfite sequencing, the modified DNA was amplified by nested polymerase chain reaction (PCR) using two forward (F) primers and one reverse (R) primer: Oct4 (F1, 5′-GTTGTTTTGTTTTGGTTTTGGATAT-3′, SEQ ID NO:57; F2, 5′-ATGGGTTGAAATATTGGGTTTATTTA-3′, SEQ ID N:58; and R, 5′-CCACCCTCTAACCTTAACCTCTAAC-3′, SEQ ID NO:59) and Nanog (F1, 5′-GAGGATGTTTTTTAAGTTTTTTTT-3′, SEQ ID NO:60; F2, 5′-AATGTTTATGGTGGATTTTGTAGGT-3′, SEQ ID NO:;61; and R, 5′-CCCACACTCATATCAATATAATAAC-3′, SEQ ID NO:62). The resulting PCR product was gel purified, subcloned into pGEM-T vector (Promega) and sequenced using M13R primer. Following primers were used for MSP: Oct4, (F) 5′-GGTTTTAGAAATAATTGGTATACGA-3′ (SEQ ID NO:63), and (R) 5′-CTATTAACACTACACCCTCTCGAC-3′ (SEQ ID NO:64); and Nanog, (F) 5′-ATTTGTGAGTATAAGGATTGATCGG-3′ (SEQ ID NO:65), and (R) 5′-TTTCTTTAAAATAAAATTTCACGTA-3′ (SEQ ID NO:66). PCR products were analyzed on agarose gel.

For the compound `COc1ccc2c(c1)c(C1=C(c3c[nH]c4ccccc34)C(=O)NC1=O)cn2CCCN(C)C` [Gö6983, 3-[1-[3-(dimethylamino)propyl]5-methoxy-1H-indol-3-yl]-4-(1H-indol-3-yl)-1H-pyrrole-2,5-dione], in the experiment on PKCζkd cells (FIG. 2C), the “expression of pluripotency markers in PKCζkd cells on collagen IV” value is given as “maintained the expression of pluripotency markers”. Besides, in the experiment on PKCζkd cells (without LIF), the “differentiation of PKCζkd cells on collagen IV” value was “inhibited differentiation of PKCζkd cells”. For the same compound, in the experiment on Stat3−/− ES cells, the “differentiation of Stat3−/− ES cells” value is listed as “efficiently prevented differentiation”. Besides, in the experiment with NF-κB target genes (E14 cells, absence of LIF, FIG. 3A), the “activation of NF-κB target gene transcription” value was “inhibited their activation”. Besides, the “activation of NF-κB target genes, RelA phosphorylation and reporter Luciferase” value with NF-κB target genes (PKCζkd cells cultured on collagen IV) was “inhibited the activation”. The “DNA methylation of promoter regions of Oct4 and Nanog” value in experiment [1] was “remained largely unmethylated”.

These data come from patent publication US8193235B2, “Compositions and methods for establishing and maintaining stem cells in an undifferentiated state” (University of Kansas, priority 2009, dated 2012).
